Data set [1] is described as follows: Visual (tube-tapping) assay of gel-forming capability and solubility. The format is physicochemical. Also on record: key to Gel-forming ability: Y: can form a liquid gel; N: lacks the ability to efficiently form a liquid gel. The following applies: visual inspection of 11% peptide solutions, tube-tapping, 20 min after mixing. The protocol:
To evaluate the ability of peptides to form gels in situ, we initially determined this tendency qualitatively based on visual examinations of peptide solutions using a tube-tapping method. In addition, we quantitatively determined the viscosity of select peptide solutions using a viscometer (Rheosense Inc; http://www.rheosense.com/products/viscometers) ([Yan and Pochan, 2010]). In the visual assay, aliquots of peptides were dissolved in an aqueous solution (i.e., de-ionized water, saline, or 5% glucose solution). The peptide that dissolved instantly and stayed as a clear solution without obvious macroscopic change in viscosity at 20 min after mixing was considered soluble. If macroscopic particles of peptides remained in the solution at 20 min after mixing, the peptide was considered insoluble.

In another data set the target is T1, CLR/RAMP1 receptor (Homo sapiens, UniProt O60894+Q16602).
T1 construct: host or cells: CHO-K1 (cAMP Hunter cell line)
T1 sequence (Q16602 23-461): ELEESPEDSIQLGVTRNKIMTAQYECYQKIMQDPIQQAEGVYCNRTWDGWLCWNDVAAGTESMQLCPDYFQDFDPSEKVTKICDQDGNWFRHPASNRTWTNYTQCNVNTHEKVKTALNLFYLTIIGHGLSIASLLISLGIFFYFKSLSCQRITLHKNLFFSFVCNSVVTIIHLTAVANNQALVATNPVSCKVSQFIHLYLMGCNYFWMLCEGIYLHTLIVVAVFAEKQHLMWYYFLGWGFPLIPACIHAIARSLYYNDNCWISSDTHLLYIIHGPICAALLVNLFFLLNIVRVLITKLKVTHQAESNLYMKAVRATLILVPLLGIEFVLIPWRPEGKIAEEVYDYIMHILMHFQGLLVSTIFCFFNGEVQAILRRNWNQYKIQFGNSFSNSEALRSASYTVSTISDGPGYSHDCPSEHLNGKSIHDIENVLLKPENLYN
T1 sequence (O60894 27-148): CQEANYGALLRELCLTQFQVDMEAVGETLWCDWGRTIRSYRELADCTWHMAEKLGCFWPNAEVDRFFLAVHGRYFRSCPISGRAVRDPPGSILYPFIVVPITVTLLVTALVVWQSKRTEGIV
Put plainly: HitHunter cAMP XS+ CALCRL-RAMP1 cAMP assay, antagonist mode. The format is cell-based. To be noted: for Maximum response: antagonist mode, β-CGRP at EC80, 10-point curve, duplicate. The protocol:
The assay of the antagonistic activity of analogs was conducted by the Eurofins Discoverx using the HitHunter cAMP XS + assay as described earlier ([Bradley and McLoughlin, 2009]; [Chang and Hsu, 2019]). The dose-dependent inhibitory effect of antagonists was studied in duplicate, at 10 different concentrations. Determination of the half-maximal inhibitory concentration (IC50) was performed using a 10-point dose-response curve. The starting concentration was 10 μM, and it was serially diluted 3-fold, in DMSO. […] Using the Hit Hunter® assay (CALCRL-RAMP1 cAMP assay in the antagonist mode; https://www.discoverx.com/products/cell-line/cho-k1-calcrl-ramp1-gs-cell-line-95-0164c2), the eight compounds in Table 1 were assayed side-by-side once, and the IC50 was derived based on the standard assay of duplicate samples of a ten-point curve. In this homogenous, non-imaging assay, the activation of CLR/RAMP1 signaling was evaluated using the Enzyme Fragment Complementation (EFC) technology with β-galactosidase (β-Gal) as the functional reporter. The enzyme was split into two complementary portions: an enzyme acceptor and an enzyme donor. The enzyme donor is fused to cAMP and it competes with cAMP generated by cells
For binding to a cAMP-specific antibody. Active β-Gal is formed by complementation of exogenous enzyme acceptor to any unbound enzyme donor-cAMP. The active enzyme then converted a chemiluminescent substrate to generate a signal. Briefly, cAMP Hunter cell lines with the select receptor were expanded from freezer stocks ([Bradley and McLoughlin, 2009]), and cells were seeded in a total volume of 20 μL into 384-well microplates and incubated at 37°C for the appropriate time. […] Intermediate dilution of samples was performed to generate 4X sample in the assay buffer. Before the assay, media was aspirated from cells and replaced with 10 μL 1:1 HBSS/Hepes:cAMP XS + Ab reagent, and 5 μL of 4X compound was added to the cells and incubated for 30 min. […] Vehicle concentration was 1%.
The chemiluminescent signal was read with a PerkinElmer chemiluminescent plate reader. The compound activity was analyzed using a CBIS data analysis suite (ChemInnovation, CA). The percentage inhibition was calculated using the following formula: % Inhibition = 100% x (1 - (mean RLU of test sample - mean RLU of vehicle control)/(mean RLU of EC80 control - mean RLU of vehicle control)). Data were normalized to the maximal and minimal response observed in the presence of EC80 agonist and vehicle.

The structures appear in SMILES notation. Non-standard residues stand in square brackets, D forms with d. Residues, ends and D or L forms follow the SMILES beside them. *: point of attachment. Palmitoyl = CCCCCCCCCCCCCCCC(=O)*; Hyp = O=C(O)[C@@H]1C[C@@H](O)CN1; Cit = NC(=O)NCCC[C@H](N)C(=O)O; Orn = NCCC[C@H](N)C(=O)O; Dab = NCC[C@H](N)C(=O)O; Nva = CCC[C@H](N)C(=O)O; Abu = CC[C@H](N)C(=O)O; Aib = CC(C)(N)C(=O)O; Ahx = NCCCCCC(=O)O; βAla = NCCC(=O)O

Data on 13 compounds can be found in PMC9772450, “Gel-forming antagonist provides a lasting effect on CGRP-induced vasodilation” (Frontiers in Pharmacology, 2022).

`CCCCCCCCCCCCCCCC(=O)N[C@@H](CCCCN)C(=O)N[C@H](C(=O)N[C@@H](CCC(N)=O)C(=O)N[C@@H](CCCCN)C(=O)NC(C)(C)C(=O)N[C@@H](CO)C(=O)N[C@@H](C)C(=O)N1CCC[C@H]1C(=O)N[C@H](C(=O)N[C@@H](CC(=O)O)C(=O)N1CCC[C@H]1C(=O)N[C@@H](CO)C(=O)N[C@@H](CO)C(=O)N1CCC[C@H]1C(=O)N[C@@H](Cc1c[nH]cn1)C(=O)N[C@@H](CO)C(=O)N[C@@H](Cc1ccc(O)cc1)C(N)=O)C(C)C)C(C)C` [ADE651A] (Palmitoyl-KVQK[Aib]SAPVDPSSPHSY-NH2): in data set [1], the Gel-forming ability result is recorded as “N”. Take `CCCCCCCCCCCCCCCC(=O)N[C@@H](CCCCN)C(=O)N[C@H](C(=O)N[C@@H](CCC(N)=O)C(=O)N[C@@H](CCCCN)C(=O)NCCCCCC(=O)N[C@@H](CO)C(=O)N[C@@H](C)C(=O)N1CCC[C@H]1C(=O)N[C@H](C(=O)N[C@@H](CC(=O)O)C(=O)N1CCC[C@H]1C(=O)N[C@@H](CO)C(=O)N[C@@H](CO)C(=O)N1CCC[C@H]1C(=O)N[C@@H](Cc1c[nH]cn1)C(=O)N[C@@H](CO)C(=O)N[C@@H](Cc1ccc(O)cc1)C(N)=O)C(C)C)C(C)C` [ADE651B] (Palmitoyl-KVQK[Ahx]SAPVDPSSPHSY-NH2): in data set [1], the Gel-forming ability result is recorded as “N”. Turning to `CCCCCCCCCCCCCCCC(=O)N[C@@H](CCCCN)C(=O)N[C@H](C(=O)N[C@@H](CCC(N)=O)C(=O)N[C@@H](CCCCN)C(=O)N[C@@H](CCC)C(=O)N[C@@H](CO)C(=O)N[C@@H](C)C(=O)N1CCC[C@H]1C(=O)N[C@H](C(=O)N[C@@H](CC(=O)O)C(=O)N1CCC[C@H]1C(=O)N[C@@H](CO)C(=O)N[C@@H](CO)C(=O)N1CCC[C@H]1C(=O)N[C@@H](Cc1c[nH]cn1)C(=O)N[C@@H](CO)C(=O)N[C@@H](Cc1ccc(O)cc1)C(N)=O)C(C)C)C(C)C` [ADE651C] (Palmitoyl-KVQK[Nva]SAPVDPSSPHSY-NH2), at CLR/RAMP1 receptor (CHO-K1 CALCRL-RAMP1 cAMP Hunter cells, human β-CGRP at EC80 (0.37nM), 30 min pre-incubation, 10-point curve from 10 μM, 3-fold dilutions, duplicate samples, assayed side-by-side once, read-out: IC50 for antagonizing CGRP-induced CLR/RAMP1 signaling), the IC50 was 1.3 nM. Also, at CLR/RAMP1 receptor, the Maximum response was 101 % of positive control. Further, the “Antagonistic activity toward CGRP-mediated CLR/RAMP1 signaling compared to ADE651” value on CLR/RAMP1 receptor (result in words) is “retained the potent antagonistic activity”. Moreover, in data set [1], the Gel-forming ability entry is on record as “Y”. `CCCCCCCCCCCCCCCC(=O)N[C@@H](CCCCN)C(=O)N[C@H](C(=O)N[C@@H](CCC(N)=O)C(=O)N[C@@H](CCCCN)C(=O)N[C@@H](CCCNC(N)=O)C(=O)N[C@@H](CO)C(=O)N[C@@H](C)C(=O)N1CCC[C@H]1C(=O)N[C@H](C(=O)N[C@@H](CC(=O)O)C(=O)N1CCC[C@H]1C(=O)N[C@@H](CO)C(=O)N[C@@H](CO)C(=O)N1CCC[C@H]1C(=O)N[C@@H](Cc1c[nH]cn1)C(=O)N[C@@H](CO)C(=O)N[C@@H](Cc1ccc(O)cc1)C(N)=O)C(C)C)C(C)C` [ADE651D] (Palmitoyl-KVQK[Cit]SAPVDPSSPHSY-NH2): the Gel-forming ability result in data set [1] is recorded as “N”. For the compound `CCCCCCCCCCCCCCCC(=O)N[C@@H](CCCCN)C(=O)N[C@H](C(=O)N[C@@H](CCC(N)=O)C(=O)N[C@@H](CCCCN)C(=O)N1C[C@H](O)C[C@H]1C(=O)N[C@@H](CO)C(=O)N[C@@H](C)C(=O)N1CCC[C@H]1C(=O)N[C@H](C(=O)N[C@@H](CC(=O)O)C(=O)N1CCC[C@H]1C(=O)N[C@@H](CO)C(=O)N[C@@H](CO)C(=O)N1CCC[C@H]1C(=O)N[C@@H](Cc1c[nH]cn1)C(=O)N[C@@H](CO)C(=O)N[C@@H](Cc1ccc(O)cc1)C(N)=O)C(C)C)C(C)C` [ADE651E] (Palmitoyl-KVQK[Hyp]SAPVDPSSPHSY-NH2), the Gel-forming ability entry in data set [1] is “N”. Same read-out and setting: as for `CCCCCCCCCCCCCCCC(=O)N[C@@H](CCCCN)C(=O)N[C@H](C(=O)N[C@@H](CCC(N)=O)C(=O)N[C@@H](CCCCN)C(=O)N[C@@H](CCCC)C(=O)N[C@@H](CO)C(=O)N[C@@H](C)C(=O)N1CCC[C@H]1C(=O)N[C@H](C(=O)N[C@@H](CC(=O)O)C(=O)N1CCC[C@H]1C(=O)N[C@@H](CO)C(=O)N[C@@H](CO)C(=O)N1CCC[C@H]1C(=O)N[C@@H](Cc1c[nH]cn1)C(=O)N[C@@H](CO)C(=O)N[C@@H](Cc1ccc(O)cc1)C(N)=O)C(C)C)C(C)C` [ADE651F], the entry is “N”.

With `CCCCCCCCCCCCCCCC(=O)N[C@@H](CCCCN)C(=O)N[C@H](C(=O)N[C@@H](CCC(N)=O)C(=O)N[C@@H](CCCCN)C(=O)N[C@@H](CCCN)C(=O)N[C@@H](CO)C(=O)N[C@@H](C)C(=O)N1CCC[C@H]1C(=O)N[C@H](C(=O)N[C@@H](CC(=O)O)C(=O)N1CCC[C@H]1C(=O)N[C@@H](CO)C(=O)N[C@@H](CO)C(=O)N1CCC[C@H]1C(=O)N[C@@H](Cc1c[nH]cn1)C(=O)N[C@@H](CO)C(=O)N[C@@H](Cc1ccc(O)cc1)C(N)=O)C(C)C)C(C)C` [ADE651G] (Palmitoyl-KVQK[Orn]SAPVDPSSPHSY-NH2), the Gel-forming ability entry in data set [1] is “N”. Same read-out and setting: in the case of `CCCCCCCCCCCCCCCC(=O)N[C@@H](CCCCN)C(=O)N[C@H](C(=O)N[C@@H](CCC(N)=O)C(=O)N[C@@H](CCCCN)C(=O)N[C@@H](CC)C(=O)N[C@@H](CO)C(=O)N[C@@H](C)C(=O)N1CCC[C@H]1C(=O)N[C@H](C(=O)N[C@@H](CC(=O)O)C(=O)N1CCC[C@H]1C(=O)N[C@@H](CO)C(=O)N[C@@H](CO)C(=O)N1CCC[C@H]1C(=O)N[C@@H](Cc1c[nH]cn1)C(=O)N[C@@H](CO)C(=O)N[C@@H](Cc1ccc(O)cc1)C(N)=O)C(C)C)C(C)C` [ADE651I] (Palmitoyl-KVQK[Abu]SAPVDPSSPHSY-NH2) it was “N”; in that of `CCCCCCCCCCCCCCCC(=O)N[C@@H](CCCCN)C(=O)N[C@H](C(=O)N[C@@H](CCC(N)=O)C(=O)N[C@@H](CCCCN)C(=O)N[C@@H](CCN)C(=O)N[C@@H](CO)C(=O)N[C@@H](C)C(=O)N1CCC[C@H]1C(=O)N[C@H](C(=O)N[C@@H](CC(=O)O)C(=O)N1CCC[C@H]1C(=O)N[C@@H](CO)C(=O)N[C@@H](CO)C(=O)N1CCC[C@H]1C(=O)N[C@@H](Cc1c[nH]cn1)C(=O)N[C@@H](CO)C(=O)N[C@@H](Cc1ccc(O)cc1)C(N)=O)C(C)C)C(C)C` [ADE651K] (Palmitoyl-KVQK[Dab]SAPVDPSSPHSY-NH2), “N”.

Consider `CCCCCCCCCCCCCCCC(=O)N[C@@H](CCCCN)C(=O)N[C@H](C(=O)N[C@@H](CCC(N)=O)C(=O)N[C@@H](CCCCNC)C(=O)N[C@@H](CC(C)C)C(=O)N[C@@H](CO)C(=O)N[C@@H](C)C(=O)N1CCC[C@H]1C(=O)N[C@H](C(=O)N[C@@H](CC(=O)O)C(=O)N1CCC[C@H]1C(=O)N[C@@H](CO)C(=O)N[C@@H](CO)C(=O)N1CCC[C@H]1C(=O)N[C@@H](Cc1c[nH]cn1)C(=O)N[C@@H](CO)C(=O)N[C@@H](Cc1ccc(O)cc1)C(N)=O)C(C)C)C(C)C` [ADE651L], for which, in data set [1], the Gel-forming ability entry is “Y”. Same read-out and setting: in the case of `CCCCCCCCCCCCCCCC(=O)N[C@@H](CCCCN)C(=O)N[C@H](C(=O)N[C@@H](CCC(N)=O)C(=O)N[C@@H](CCCCNC(=O)CCS)C(=O)N[C@@H](CC(C)C)C(=O)N[C@@H](CO)C(=O)N[C@@H](C)C(=O)N1CCC[C@H]1C(=O)N[C@H](C(=O)N[C@@H](CC(=O)O)C(=O)N1CCC[C@H]1C(=O)N[C@@H](CO)C(=O)N[C@@H](CO)C(=O)N1CCC[C@H]1C(=O)N[C@@H](Cc1c[nH]cn1)C(=O)N[C@@H](CO)C(=O)N[C@@H](Cc1ccc(O)cc1)C(N)=O)C(C)C)C(C)C` [ADE651O] it was “Y”.

`CCCCCCCCCCCCCCCC(=O)N[C@@H](CCCCN)C(=O)N[C@H](C(=O)N[C@@H](CCC(N)=O)C(=O)N[C@@H](CCCCN)C(=O)NCCC(=O)N[C@@H](CO)C(=O)N[C@@H](C)C(=O)N1CCC[C@H]1C(=O)N[C@H](C(=O)N[C@@H](CC(=O)O)C(=O)N1CCC[C@H]1C(=O)N[C@@H](CO)C(=O)N[C@@H](CO)C(=O)N1CCC[C@H]1C(=O)N[C@@H](Cc1c[nH]cn1)C(=O)N[C@@H](CO)C(=O)N[C@@H](Cc1ccc(O)cc1)C(N)=O)C(C)C)C(C)C` [ADE651P] (Palmitoyl-KVQK[βAla]SAPVDPSSPHSY-NH2): the Gel-forming ability entry in data set [1] was “N”.

Take `NCCCC[C@H](NC(=O)[C@@H](Cc1cc(Br)c(O)c(Br)c1)NC(=O)N1CCC(N2Cc3ccccc3NC2=O)CC1)C(=O)N1CCN(c2ccncc2)CC1` [BIBN4096, reference compound]: the Maximum response on CLR/RAMP1 receptor is on record as 100.5 % of positive control.
